Laboratory results: US20110065753A1, “METHODS OF TREATING POXVIRAL INFECTIONS” (priority 2009, published 2011)
“And” between values parts separate entries of the source, which are not always exact repeats. Equal values may be shown once.

How the values were obtained:
[1] = system: Vaccinia NYCBOH strain; type: cell-based; details: read-out: IC50, inhibition of infectivity of Vaccinia virus
[2] = Iminosugar safety study, BALB/c mice; details: for weight loss compared to vehicle only control: oral suspension twice a day for 7 days at 100 and 10 mg/kg
[3] = Iminosugar safety study, C57/B1/6 mice; details: oral suspension twice a day for 7 days at 100 and 10 mg/kg
[4] = system: Cowpox Brighton; type: in vivo, BALB/C mice; details: n=10
[5] = mouse, in vivo

| SMILES | IC50 [1] [µM] | weight loss compared to vehicle only control [2] | weight loss compared to vehicle only control [3] | percentage of surviving mice [4] | weight loss or adverse effects [5] | general health, clinical signs ([2]; highest concentration (100 mg/kg twice a day, 7 days), symptoms ceased when treatment was done) |
| --- | --- | --- | --- | --- | --- | --- |
| CCCCN1C[C@H](O)[C@@H](O)[C@H](O)[C@H]1CO [UV-1, N-Butyl deoxynojirimycin] | 90 | did not show any significant signs of weight loss | did not show any significant signs of weight loss | – | – | – |
| CCCOCCCCCCN1C[C@H](O)[C@@H](O)[C@H](O)[C@H]1CO [UV-3, N-(7-Oxadecyl)deoxynojirimycin] | 7 | – | – | – | – | – |
| CCCCCCCCCN1C[C@H](O)[C@@H](O)[C@H](O)[C@H]1CO [UV-2, N-Nonyl deoxynojirimycin] | 21 | – | – | – | – | – |
| COCCCCCCCCCN1C[C@H](O)[C@@H](O)[C@H](O)[C@H]1CO [UV-4, N-(9-Methoxynonyl) deoxynojirimycin] | 59 | did not show any significant signs of weight loss | did not show any significant signs of weight loss | 100% and 70% | no weight loss or adverse effects observed | – |
| [N-]=[N+]=Nc1ccc(NCCCCCCN2C[C@H](O)[C@@H](O)[C@H](O)[C@H]2CO)c([N+](=O)[O-])c1 [UV-5, N—(N-{4′-azido-2′-nitrophenyl}-6-aminohexyl)deoxynojirimycin] | 3 | did not show any significant signs of weight loss | did not show any significant signs of weight loss | – | – | signs of diarrhea, red urine, and a ruffled appearance |
